Laboratory results as given in patent publication US20170071903A1, “USE OF ERIBULIN AND MTOR INHIBITORS AS COMBINATION THERAPY FOR THE TREATMENT OF CANCER” (Eisai R&D Management Co., Ltd., priority 2014, published 2017).
Counter-ions that a name gives are not always drawn. Like-named read-outs stand apart in the source and are kept apart here.

How the values were obtained:
[1] = Text: No consumable enrichment was provided. […] Cages were changed twice weekly.
All treatments were initiated on Day 10.

[2] = system: MX-1 human mammary tumor xenografts; assay: Growth of subcutaneously-implanted MX-1 human mammary tumor xenografts in mice
From the text: A total of 120 tumor bearing mice were divided into twelve groups of 10 mice. […] All treatments were initiated 10 days after the implantation of tumor xenografts.
Six-weeks-old female, athymic NCr-nu/nu mice were purchased from Charles River Laboratories (Wilmington, Mass.) and acclimated in the laboratories for 10 days prior to experimentation. The animals were housed in microisolator cages, five per cage with a 12-hour light/dark cycle. The animals received filtered Birmingham municipal water and sterilized Teklad Global 16% protein rodent diet (2016S, Harlan Laboratories, Inc.) ad libitum. No consumable enrichment was provided. Enrich-n'Nest paper rolls (the Andersons Lab Bedding Products, Maumee, Ohio) were provided in each cage as manipulanda. Cages were changed twice weekly. The animals were observed daily and clinical signs were noted.
Each mouse was implanted SC near the right flank with a 30-40 mg fragment of MX-1 human mammary tumor from an in vivo passage using a 13-gauge needle. The day of tumor fragments implantation was designated as Day 0. Individual tumors of 120 animals grew to 100-245 mg in weight (100-245 mm^3 in size) on the day of treatment initiation, Day 10 after tumor fragments implantation. Those animals selected with tumors in the proper size range were assigned to twelve treatment groups so that the mean and median tumor weights in all groups on the first day of treatment were as close to each other as possible (mean tumor weights ranged from 160 to 168 mg, median tumor weights were 153 or 162 mg).
The solution was allowed to stand for 2-3 minutes to make sure it was fully in solution. […] On each day of treatment, an aliquot was thawed at room temperature and diluted with saline to yield a concentration of 0.06 mg/mL in 2.5% DMSO/97.5% saline. Lower concentrations of 0.04 and 0.02 mg/mL were achieved by dilution of a portion of the 0.06 mg/mL solution with 2.5% DMSO/97.5% saline. Bottles with dosing solutions were stored at 4° C. between formulation and administration.
0.5% MC/0.2% T80 in WFI was formulated and the solution was stored at 4° C. […] A portion of the 4 mg/mL cloudy solution was diluted with 0.5% MC/0.2% T80 in WFI to 2 mg/mL. Bottles with dosing solutions were stored at 4° C. between formulation and administration.
The experiment consisted of a vehicles-treated control group and eleven drug-treated groups of 10 mice per group for a total of 120 mice on the first day of treatment. All treatments were initiated on Day 10. […] On the days when both compounds were administered, E7389 was administered to all combination groups first [−(0)]
Animals were observed once daily for mortality and morbidity. The SC tumors were measured and the animals were weighed twice weekly starting with the first day of treatment, Day 10 after tumor fragment implantation.

[3] = system: twenty-five cell line panel; assay: Anti-proliferation assay (ATPLite, growth inhibition), single agent dose response; format: cell-based; conditions: median across cell lines reaching >50% inhibition; 72 h; three-fold, ten-point dose titration
Method: Cells are thawed from a liquid nitrogen preserved state. […] The calculation for synergy score is provided below. […] This formula is derived from the Growth Inhibition calculation used in the National Cancer Institute's NCI-60 high throughput screen. All single agent and combination data analysis are performed in growth inhibition. Eribulin had varying activity across a twenty-five cell line panel. Single agent activity was assessed using a three-fold, ten-point dose titration. Twenty-three cell lines were evaluated in 1536-well plate format. Two additional cell lines were evaluated in 384-well plate format.

[4] = everolimus 20 mg/kg/dose PO Q1Dx16 (Group 6)
[5] = everolimus 40 mg/kg/dose PO Q1Dx16 (Group 5)
[6] = E7389 0.2 mg/kg/injection IV Q4Dx4 (Group 4)
[7] = E7389 0.4 mg/kg/injection IV Q4Dx4 (Group 3)

SMILES: CO[C@H]1C[C@@H]2CC[C@@H](C)[C@@](O)(O2)C(=O)C(=O)N2CCCC[C@H]2C(=O)O[C@H]([C@H](C)C[C@@H]2CC[C@@H](OCCO)[C@H](OC)C2)CC(=O)[C@H](C)/C=C(\C)[C@@H](O)[C@@H](OC)C(=O)[C@H](C)C[C@H](C)/C=C/C=C/C=C/1C [everolimus]
- maximum tolerated dose (MTD) ([1]; mouse, in vivo, po): not reached
- T/C value on Day 34 (median tumor weight) [2, 4]: 74%
- median tumor growth delay (T-C) [2, 4]: 4.0 days
- T/C value on Day 34 (median tumor weight) [2, 5]: 46%
- median tumor growth delay (T-C) [2, 5]: 6.1 days
- inhibition of the growth of the MX-1 mammary tumor xenografts ([2]; everolimus 40 and 20 mg/kg/dose PO): minimally effective

SMILES: C=C1C[C@@H]2CC[C@@]34C[C@H]5O[C@H]6[C@@H](O3)[C@H]3O[C@H](CC[C@@H]3O[C@H]6[C@H]5O4)CC(=O)C[C@@H]3[C@@H](OC)[C@@H](C[C@H](O)CN)O[C@H]3C[C@H]3O[C@@H](CC[C@@H]1O2)C[C@@H](C)C3=C [Eribulin]
- GI50 [3]: 0.51 nM

SMILES: C=C1C[C@@H]2CC[C@@]34C[C@H]5O[C@H]6[C@@H](O3)[C@H]3O[C@H](CC[C@@H]3O[C@H]6[C@H]5O4)CC(=O)C[C@@H]3[C@@H](OC)[C@@H](C[C@H](O)CN)O[C@H]3C[C@H]3O[C@@H](CC[C@@H]1O2)C[C@@H](C)C3=C [E7389, II, 15:18,21:24,28-triepoxy-7,9-ethano-12,15-methano-9H,15H-furo[3,2-i]furo[2′,3′:5,6]pyrano[4,3-b][1,4]dioxacyclopentacosin-5(4H)-one, 2-[(2S)-3-amino-2-hydroxypropyl]hexacosahydro-3-methoxy-26-methyl-20,27-bis(methylene)-, (2R,3R,3aS,7R,8aS,9S,10aR,11S,12R,13aR,13bS,15S,18S,21S,24S,26R,28R,29aS)-methanesulfonate (salt)]
- tolerability / deaths ([1]; E7389 0.6, 0.4 and 0.2 mg/kg/injection IV Q4Dx4 (Groups 2-4)): tolerated without treatment-related deaths
- maximum tolerated dose (MTD) ([1]; E7389 IV Q4Dx4, doses up to 0.6 mg/kg/injection): not reached
- dryness of the skin ([1]; mouse, in vivo): not noted
- mean body weight loss ([1]; mouse, in vivo, iv, 0.2 mg/kg): did not result in mean body weight loss
- maximum mean body weight loss ([1]; mouse, in vivo, iv, 0.4 mg/kg): 1%
- maximum mean body weight loss ([1]; mouse, in vivo, iv, 0.6 mg/kg): 1%
- T/C value on Day 34 (median tumor weight) [2, 6]: 51%
- median tumor growth delay (T-C) [2, 6]: > 6.3 days
- T/C value on Day 34 (median tumor weight) [2, 7]: 13%
- median tumor growth delay (T-C) [2, 7]: 17.7 days
- number of tumor-free survivors on day of study termination (Day 62) ([2]; E7389 0.6 mg/kg/injection (Group 2)): five
- number of complete tumor regressions ([2]; E7389 0.6 mg/kg/injection (Group 2), out of ten animals): six
- T/C value on Day 34 (median tumor weight) ([2]; E7389 0.6 mg/kg/injection IV Q4Dx4 (Group 2)): 0%
- median tumor growth delay (T-C) ([2]; E7389 0.6 mg/kg/injection IV Q4Dx4 (Group 2), time to four tumor mass doublings): > 33.8 days
- inhibition of the growth of the MX-1 mammary tumor xenografts ([2]; E7389 0.6, 0.4 and 0.2 mg/kg/injection IV): very effective
